14 compounds from patent US4663332A, “5-substituted N-alkylated tetrazoles” (Hoffman-La Roche Inc., priority 1985, dated 1987) can be followed below.

For experiment [1], the target named is T1, PAF binding to dog platelets (Canis lupus familiaris, UniProt A0A8I3NSH0).
T1 construct: from tissue; host or cells: washed platelets from citrate-treated dog blood
T1 sequence (A0A8I3NSH0 1-343): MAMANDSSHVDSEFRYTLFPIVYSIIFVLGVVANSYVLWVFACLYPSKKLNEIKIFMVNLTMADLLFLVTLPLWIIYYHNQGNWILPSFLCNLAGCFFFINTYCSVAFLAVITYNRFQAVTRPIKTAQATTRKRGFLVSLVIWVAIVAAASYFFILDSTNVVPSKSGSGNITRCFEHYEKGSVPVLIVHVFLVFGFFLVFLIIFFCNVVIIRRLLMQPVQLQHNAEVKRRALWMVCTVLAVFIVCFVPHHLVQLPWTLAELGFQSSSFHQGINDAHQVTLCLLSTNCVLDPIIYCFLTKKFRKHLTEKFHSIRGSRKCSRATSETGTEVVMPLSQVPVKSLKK
The experiment is described as follows: PAF Radioreceptor Binding Assay (PAF Binding). The note with it: inhibition of 3H-PAF binding to dog platelets, 10 min, room temperature. Here is the method: (1) PAF Radioreceptor Binding Assay (PAF Binding)
Platelet rich plasma is prepared by centrifugation of citrate-treated dog blood. Acidification to pH 6.5 with 0.15M citric acid and centrifugation for 10 minutes at 1000×g yields a platelet pellet which is then washed by resuspension in EDTA-Phosphate Buffered Saline (PBS) and recentrifuged. The washed platelet preparation is adjusted to 2×10^7 platelets/50 μl in 0.1% bovine serum albumin-PBS.
To a 400 μl microfuge tube containing 50 μl silicone oil (specific gravity 1.023) is added buffer, PAF standard or analog, or an extract to bring the aqueous volume to 150 μl. 50 μl of ^3 H-PAF (10,000 cpm, 45 Ci/mM) is added followed by 2×10^7 dog platelets. After mixing, incubating for 10 minutes at room temperature, and centrifuging for 1 minute in a Beckman Microfuge B (8000×g), the pellet is removed by clipping off the tip of the tube, the platelets are solubilized with 200 μl of 50% methanol and counted in 10 ml of Aquasol. […] Results obtained with representative copounds of the present invention in this assay are summarized hereinafter in Tables I and II. IC50 is drug concentration (μMolar) which inhibits PAF binding to dog platelets by 50%.

Experiment [2] deals with T2, TXA2 synthase (Homo sapiens, UniProt P24557).
T2 construct: using microsomal fractions from human platelets as enzyme source; from tissue; host or cells: microsomal fractions from human platelets
T2 sequence (P24557 1-533): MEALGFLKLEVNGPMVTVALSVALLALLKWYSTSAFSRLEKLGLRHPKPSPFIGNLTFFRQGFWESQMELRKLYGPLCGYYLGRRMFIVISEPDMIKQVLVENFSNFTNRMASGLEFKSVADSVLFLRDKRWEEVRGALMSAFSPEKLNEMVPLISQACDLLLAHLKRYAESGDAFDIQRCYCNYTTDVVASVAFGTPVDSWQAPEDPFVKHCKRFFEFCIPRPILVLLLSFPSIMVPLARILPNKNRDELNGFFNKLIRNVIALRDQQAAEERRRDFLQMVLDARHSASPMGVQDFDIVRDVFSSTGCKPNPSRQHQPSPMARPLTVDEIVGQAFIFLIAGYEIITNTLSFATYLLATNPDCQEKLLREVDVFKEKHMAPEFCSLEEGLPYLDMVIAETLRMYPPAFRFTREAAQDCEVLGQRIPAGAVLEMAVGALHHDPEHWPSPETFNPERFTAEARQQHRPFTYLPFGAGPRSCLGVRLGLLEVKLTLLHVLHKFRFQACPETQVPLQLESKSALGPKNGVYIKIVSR
The experiment is described as follows: Thromboxane Synthase Inhibition, In Vitro (TXA2 Synth. Inhib.). The format is biochemical. As to conditions: human platelet microsomes, 10 μM 14C-PGH2, 22° C., 2 min. Here is the method:
(2) Thromboxane Synthase Inhibition, In Vitro (TXA2 Synth. Inhib.)
TXA2 synthase activity is measured by following the conversion of ^14 C-prostaglandin endoperoxide (PGH2) to ^14 C-thromboxane A2 (TXA2) using microsomal fractions from human platelets as enzyme source. In the aqueous incubation medium, the TXA2 decomposes rapidly into TXB2. The amount of TXA2 synthase is adjusted so that under the conditions of the assay approximately 80-90% of the substrate, PGH2, is converted to product in control tubes. To prepare ^14 C-PGH2, ^14 C-AA (50-60 mCi/mmole; Rose Chem.) is incubated with sheep seminal vesicular gland microsomes for 1.5 minutes at 37° C. and then the ^14 C-PGH2 is extracted with diethylether, purified on columns oof Sephadex LH-20 or silicic acid, and stored in acetone at -70° C. Incubations are done as follows. Sufficient ^14 C-PGH2 to yield a final substrate concentration of 10 μM (30,000 cpm) is added to the incubation tubes and then the acetone is removed under nitrogen. The tubes are placed in an ice bath and then 215 μl of ice cold phosphate buffered saline, 10 μl of ethanol (control) or of test drug in ethanol, and 25 μl of the microsomal suspension are added with mixing in that order as rapidly as possible. The tubes are incubated at 22° C. for 2 minutes, the reaction is stopped and then the radioactive products and the unconverted PGH2 are extracted and analyzed by thin layer chromatography. […] The amount of ^14 C-PGH2 converted to products was used as a measure of TXA2 synthase activity. Inhibitors were tested initially at a final concentration 100 μM. Results obtained with representative compounds of the present invention in this assay are summarized hereafter in Tables I and II. IC50 is the drug concentration (μMolar) which inhibits TXA2 activity by 50%.

Experiment [3] concerns PAF. The experiment is described as follows: Inhibition of PAF-Induced Platelet Aggregation (Inhib. of PAF Platelet Reduction). As to conditions: Cavia porcellus, iv, 3 mg/kg i.v. The format is in vivo, guinea pig. Here is the method: (5) Inhibition of PAF-Induced Platelet Aggregation (Inhib. of PAF Platelet Reduction)
Guinea pigs (anesthetized) are set up to withdraw blood for platelet counting. The animal is allowed to stabilize after completion of surgical procedures. The carotid catheter is allowed to bleed back blood and then is filled, prior to each sample withdrawal with sodium citrate 3.8% (0.15 ml). Blood (0.25 ml) is withdrawn 30 seconds prior to the PAF challenge and at 15, 30 and 60 seconds after the PAF challenge. This first PAF challenge is used as the control, assuming sufficient decreases in platelet count are observed. The amount of PAF used will be approximately 50 ng/kg, however, this can be increased to achieve the desired decreases in platelet count. Fifteen minutes after the control PAF challenge, intravenous drug dosing begins, with animals being dosed at 30 minute intervals; PAF challenge follows 15 minutes after each intravenous dose. Three intravenous drug doses are used in each experiment. Initial drug doses are 1, 3 and 10 mg/kg i.v. Inhibition of PAF platelet reduction at 3 mg/kg i.v. for representative compounds of the invention are summarized hereinafter in Tables I and II. Percent inhibition is [formula]

For experiment [4], the system named is PAF. The experiment is described as follows: Inhibition of PAF Induced Guinea Pig Bronchoconstriction Test (Inhib. of PAF Broncho.). The note with it: Cavia porcellus, iv; 1 mg/kg i.v. (1 min. pretreat). The format is in vivo, guinea pig (Hartley strain). Here is the method: (3) Inhibition of PAF Induced Guinea Pig Bronchoconstriction Test (Inhib. of PAF Broncho.)
Male guinea pigs (Hartley strain) weighing 300 to 500 g are anesthetized with urethane (2 g/kg) intraperitoneally and a polyethylene cannula is inserted into the jugular vein for drug administration. Tracheal pressure is recorded from a cannula inserted in the trachea and connected to a Statham pressure transducer. Propranolol (0.1 mg/kg) is administered intravenously five minutes before challenge with synthetic PAF, the animal's skeletal muscles are then paralyzed with succinylcholine (1.2 mg/kg i.v.), and the animal is respirated using a Harvard small animal respirator operating at 40 breaths/min and 2.5 cc stroke volume. Under these conditions PAF induces a dose-dependent increase in ventilatory pressure over a dose range of 0.5 to 5 μg/kg i.v. For screening purposes animals are challenged with a single dose of PAF (10 μg/kg i.v.).
The peak increase in ventilatory pressure (cm H2 O) is recorded for three control animals and five drug-treated animals and the percent inhibition determined from the following formula [formula] Results obtained with representative compounds of the invention in this test are summarized hereinafter in Tables I and II.

SMILES strings stand for the structures.

With `CCCc1c(OCc2cccc(-c3nnnn3CCCc3cccnc3)c2)ccc(C(C)=O)c1O` [1-[2-hydroxy-3-propyl-4-[[3-[1-[3-(3-pyridinyl)propyl]-1H-tetrazol-5-yl]phenyl]methoxy]phenyl]ethanone], the IC50 – broadly, the concentration at which inhibition is half-maximal – in experiment [1] is 200 nM; in experiment [2], 1000 nM.
Take `CCCc1c(O)c(C(C)=O)cc(Cl)c1OCc1cccc(-c2nnnn2CCCc2cccnc2)c1` [1-[5-chloro-2-hydroxy-3-propyl-4-[[3-[1-[3-(3-pyridinyl)propyl]-1H-tetrazol-5-yl]phenyl]methoxy]phenyl]ethanone]: in experiment [3], the inhibition in vivo (in general, the change of the read-out against control, counted positive when it falls) at 3 mg/kg came to 25%. For the same compound, the inhibition in vivo at 1 mg/kg in experiment [4] is 43 ± 21%. Besides, the IC50 in experiment [1] worked out at 25 nM.
Regarding `CCCc1c(OCCCc2nnn(CCCc3cccnc3)n2)ccc(C(C)=O)c1O` [3 3 3-pyridyl, 1-[2-hydroxy-3-propyl-4-[3-[2-[3-(3-pyridinyl)propyl]-2H-tetrazol-5-yl]propoxy]phenyl]ethanone], the inhibition in vivo at 1 mg/kg in experiment [4] came out at 13 ± 7%. Also, the IC50 in experiment [1] is greater than 1000 nM.
For `CCCc1c(OCCCc2nnn(CCCCc3cccnc3)n2)ccc(C(C)=O)c1O` [3 4 3-pyridyl, 1-[2-Hydroxy-3-propyl-4-[3-[2-[4-(3-pyridinyl)butyl]-2H-tetrazol-5-yl]propoxy]phenyl]ethanone] the same measures were 38 ± 14% and 1000 nM.
Regarding `CCCc1c(OCCCCc2nnn(CCc3cccnc3)n2)ccc(C(C)=O)c1O` [4 2 3-pyridyl, 1-[2-Hydroxy-3-propyl-4-[4-[2-[2-(3-pyridinyl)ethyl]-2H-tetrazol-5-yl]butoxy]phenyl]ethanone], the IC50 in experiment [1] is greater than 1000 nM.
As for `CCCc1c(OCCCCc2nnn(CCCn3ccnc3)n2)ccc(C(C)=O)c1O` [4 3 1-imidazolyl, 1-[2-Hydroxy-3-propyl-4-[4-[2-[3-(1H-imidazol-1-yl)propyl]-2H-tetrazol-5-yl]butoxy]phenyl]-ethanone], the inhibition in vivo at 1 mg/kg in experiment [4] came out at 30 ± 15%. For the same compound, the IC50 in experiment [1] was greater than 1000 nM.
`CCCc1c(OCCCCc2nnn(CCCc3cccnc3)n2)ccc(C(C)=O)c1O` [4 3 3-pyridyl, 1-[2-Hydroxy-3-propyl-4-[4-[2-[3-(3-pyridinyl)propyl]-2H-tetrazol-5-yl]butoxy]phenyl]ethanone]: the inhibition in vivo at 1 mg/kg in experiment [4] was 55 ± 9%. The IC50 in experiment [1] is greater than 1000 nM.
For `CCCc1c(OCCCCCc2nnn(Cc3cccnc3)n2)ccc(C(C)=O)c1O` [5 1 3-pyridyl], the IC50 in experiment [1] is greater than 1000 nM.
On to `CCCc1c(OCCCCCc2nnn(CCCc3cccnc3)n2)ccc(C(C)=O)c1O` [5 3 3-pyridyl, 1-[2-Hydroxy-3-propyl-4-[5-[2-[3-(3-pyridinyl)propyl]-2H-tetrazol-5-yl]pentyloxy]phenyl]ethanone], for which the inhibition in vivo at 1 mg/kg in experiment [4] was 38 ± 11%. The IC50 in experiment [1] was greater than 1000 nM; in experiment [2], 100 to 1000 nM.
In the case of `CCCc1c(OCCCCCc2nnn(CCCCc3cccnc3)n2)ccc(C(C)=O)c1O` [5 4 3-pyridyl, 1-[2-Hydroxy-3-propyl-4-[5-[2-[4-(3-pyridinyl)butyl]-2H-tetrazol-5-yl]pentyloxy]phenyl]ethanone], the inhibition in vivo at 1 mg/kg in experiment [4] was 94 ± 6%. Also, the IC50 is 480 nM in experiment [1] and 100 to 1000 nM in experiment [2].
Turning to `CCCc1c(O)c(C(C)=O)cc(Cl)c1OCCCCCc1nnnn1CCCCc1cccnc1` [Cl H 5 4 3-pyridyl, 1-[5-chloro-2-hydroxy-3-propyl-4-[5-[1-[4-(3-pyridinyl)butyl]-1H-tetrazol-5-yl]pentyloxy]phenyl]ethanone], the inhibition in vivo at 3 mg/kg in experiment [3] was found to be 7%. Moreover, the results for the IC50 in experiment [1] and in experiment [2] were 140 nM and 1000 nM, respectively.
Take `CCCc1c(OCCCc2nnnn2CCCc2cccnc2)ccc(C(C)=O)c1O` [H H 3 3 3-pyridyl, 1-[2-Hydroxy-3-propyl-4-[3-[1-[3-(3-pyridinyl)propyl]-1H-tetrazol-5-yl]propoxy]phenyl]ethanone]: in experiment [4], the inhibition in vivo at 1 mg/kg was determined as 53 ± 17%. In addition, the IC50 in experiment [1] was 250 nM; in experiment [2], 10 to 100 nM.
For the compound `CCCc1c(OCCCCc2nnnn2CCc2cccnc2)ccc(C(C)=O)c1O` [H H 4 2 3-pyridyl, 1-[2-Hydroxy-3-propyl-4-[4-[1-[2-(3-pyridinyl)ethyl]-1H-tetrazol-5-yl]butoxy]phenyl]ethanone], in experiment [3], the inhibition in vivo at 3 mg/kg was 48%. Moreover, the inhibition in vivo at 1 mg/kg in experiment [4] was -15 ± 6%. For the same compound, in experiment [1], the concentration for half-maximal inhibition (IC50) was 1000 nM.
In experiment [1], `CCCc1c(OCCCCCc2nnnn2Cc2cccnc2)ccc(C(C)=O)c1O` [H H 5 1 3-pyridyl, 1-[2-Hydroxy-3-propyl-4-[5-[1-(3-pyridinyl)methyl-1H-tetrazol-5-yl]-pentyloxy]phenyl]ethanone] yielded a concentration for half-maximal inhibition (IC50) of 800 nM.
